Converted amounts (≈) assume the structure as drawn. “Also recorded” adds a separate entry of the source. Like-named read-outs stand apart in the source and are kept apart here.
Legend:
[1] = system: all tested bacteria and fungi (P. aeruginosa, E. coli, S. aureus, C. albicans, F. solani); assay: MIC, summarised over all pathogens tested; type: cell-based; details: for MICs for all pathogens tested: range over Gram-negative, Gram-positive bacteria and fungi
Procedure: (§1) Bacteria cells were grown overnight at 37° C. in MH broth to a mid-log phase and diluted to 10^4 to 10^5 CFU ml^−1. A twofold dilution series of 100 μl product solution in MH broth (YM broth for the fungi C. albicans and F. solani) was made on 96-well microplate, followed by the addition of 100 μl bacterial suspension (10^4 to 10^5 CFU mL^−1). The plates were incubated at 37° C. for 18-24 h (28° C., 36-48 h for fungi), and the absorbance at 600 nm was measured with a microplate reader (BIO-RAD, US). Positive control was without product, and negative control was without bacteria/fungi inoculum. MICs were determined as the lowest concentration that inhibited cell growth by more than 90%.

[2] = system: Pseudomonas aeruginosa (ATCC9027); assay: Minimal inhibitory concentration (MIC), twofold broth dilution; type: cell-based; details: Gram-negative; lowest concentration inhibiting growth by more than 90%
Procedure: as §1

[3] = system: Candida albicans (ATCC10231); assay: as above; type: cell-based; details: fungi; lowest concentration inhibiting growth by more than 90%
Procedure: as §1

[4] = system: Escherichia coli (ATCC8739); assay: as above; type: cell-based; details: Gram-negative; lowest concentration inhibiting growth by more than 90%
Procedure: as §1

[5] = system: Staphylococcus aureus (ATCC6538); assay: as above; type: cell-based; details: Gram-positive; lowest concentration inhibiting growth by more than 90%
Procedure: as §1

[6] = system: Fusarium solani (ATCC36031); assay: as above; type: cell-based; details: fungi; lowest concentration inhibiting growth by more than 90%
Procedure: as §1

human red blood cells [7] = details: cited from earlier work
[8] = system: Escherichia coli (ATCC8739); details: comparator agents (#3A-#6E), previously reported; cited from earlier work
human red blood cells [9] = assay: Hemolysis assay; type: cell-based; details: for HC50 (the concentration which is 50% hemolytic): human erythrocytes, 1 h at 37° C.
Procedure: Fresh human blood (5 ml) was collected from a healthy donor. Erythrocytes were separated by centrifugation at 1000 rpm for 10 min, washed three times with Tris buffer (10 mM Tris, 150 mM NaCl, pH 7.2) and diluted to final concentration (5%, v/v). 50 μl of antimicrobial solution at different concentrations mixed with 50 μl erythrocytes stock were added to a 96-well microplate and incubated for 1 h at 37° C. with 150 rpm shaking. The microplate were centrifuged at 1,000 rpm for 10 min. 80 μl aliquots of the supernatant were then transferred to a new 96-well microplate and diluted with another 80 μl of Tris buffer. Hemolysis was measured as the absorbance at 540 nm with a microplate reader (BIO-RAD, US). Complete hemolysis was determined in Tris buffer plus 0.1% Triton x-100 as positive control, while Tris buffer was used as negative control. The percentage of hemolysis (H) was calculated using the following equation: Hemolysis=[(Op−Ob)/(Ot−Ob)]×100%, where Op is the density for a given antimicrobial agent concentration, Ob is the density for the buffer, and Ot is the density for the Triton x-100 positive control.

[10] = system: the three bacteria (P. aeruginosa, E. coli, S. aureus); assay: MIC, summarised over the bacterial pathogens; type: cell-based; details: for MIC against the bacterial pathogens: lower bound over the three bacteria
Procedure: as §1

E. coli membrane = assay: Membrane depolarization, DiSC3(5) dye leakage; type: cell-based, Escherichia coli; details: 100 μg ml^−1
Procedure: Bacteria were harvested at mid-log phase, washed three times with a buffer solution of 20 mM glucose and 5 mM HEPES (pH 7.4). The bacteria was resuspended in the washing buffer with additional 0.1 M KCl, then incubated with DiSC3(5) (20 nM) until it was incorporated into the cell membrane. The CS-g-K16 was added at a concentration of 100 μg ml^−1, and the fluorescence was monitored with a fluorescence spectrometer (PerkinElmer LS55, U.S.) at λex=620 nm and λem=670 nm. Finally, 0.2 nM Gramicidin D was added to obtain the full release of the dye.

E. coli = assay: LIVE/DEAD bacterial viability assay; type: cell-based, Escherichia coli; details: at MIC concentration, 15 min at 37° C.
Procedure: LIVE/DEAD assay was carried out using CS-g-K16 with E. coli. […] After incubation the cells were collected by centrifugation and stained with BacLight bacterial viability kit L13152 (Invitrogen) for 30 min at room temperature. The cells were then imaged with fluorescence microscopy (Carl Zeiss, Germany).

[11] = system: E. coli, P. aeruginosa, S. aureus, C. albicans, F. solani cells; assay: Morphology study of microorganisms (FESEM); type: cell-based; details: at MIC concentration, 15 min treatment, compared with intact controls
Procedure: After incubation the microbes were immediately fixed with glutaraldehyde (2.5%, 5 ml) solution for 4 hr. Following dehydration in a graded ethanol series (20%-100%) and drying under a nitrogen flow, the samples were coated with platinum and imaged with FESEM (JEOL JSM-6700F) for microbe morphology changes.

[12] = system: SMCs and E. coli co-culture; assay: Co-culture of bacteria and mammalian cells; type: cell-based; details: 100 μg ml^−1, 6 h after inoculation of 1×10^5 E. coli
Procedure: SMCs were cultured in 96-well plates from inocula of 1×10^5 cells in each well and incubated at 37° C. for 24 h in a culture medium free of any antibiotics. 1×10^5 cells E. coli was seeded in the SMC culture wells. Then CS-g-K16 was added in the SMC and E. coli co-culture wells at a concentration of 100 μg ml^−1. Wells without CS-g-K16 were used as a control. The co-culture was imaged using an inverted optical microscope (Carl Zeiss, Germany).

Row | Compound | MIC P. aeruginosa [2] [µg/mL] | MIC C. albicans [3] [µg/mL] | MIC E. coli [4] [µg/mL] | MIC S. aureus [5] [µg/mL] | MIC F. solani [6] [µg/mL] | also measured
1 | chitosan-graft-polylysine [CS-g-K9] | 20 | 20 | 10 | 20 | 5 | MICs for all pathogens tested [1]: 5 to 20 µg/mL
2 | Magainin-2 |  |  |  |  |  | HC50 (the concentration which is 50% hemolytic) (human red blood cells [7]): >250 µg/mL; MIC E. coli [8]: 125 µg/mL
3 | chitosan-graft-polylysine [CS-g-K3-HMW] | 310 | 160 | 80 | 160 | 40 | MICs relative to those of CS-g-K3 (#1B) ([1]; same grafting ratio of lysine, higher molecular weight chitosan, all five pathogens): ≥ 4 fold
4 | chitosan-graft-polylysine [CS-g-K25] | 40 | 20 | 10 | 10 | 5 | 
5 | CC[C@H](C)[C@H](NC(=O)CN)C(=O)NCC(=O)N[C@@H](C)C(=O)N[C@H](C(=O)N[C@@H](CC(C)C)C(=O)N[C@@H](CCCCN)C(=O)N[C@H](C(=O)N[C@@H](CC(C)C)C(=O)N[C@H](C(=O)N[C@H](C(=O)NCC(=O)N[C@@H](CC(C)C)C(=O)N1CCC[C@H]1C(=O)N[C@@H](C)C(=O)N[C@@H](CC(C)C)C(=O)N[C@H](C(=O)N[C@@H](CO)C(=O)N[C@@H](Cc1c[nH]c2ccccc12)C(=O)N[C@H](C(=O)N[C@@H](CCCCN)C(=O)N[C@@H](CCCNC(=N)N)C(=O)N[C@@H](CCCCN)C(=O)N[C@@H](CCCNC(=N)N)C(=O)N[C@@H](CCC(N)=O)C(=O)N[C@@H](CCC(N)=O)C(N)=O)[C@@H](C)CC)[C@@H](C)CC)[C@@H](C)O)[C@@H](C)O)C(C)C)C(C)C [Melittin] |  |  |  |  |  | HC50 (the concentration which is 50% hemolytic) (human red blood cells [7]; comparator agents (#3A-#6E), previously reported): 2 µg/mL; MIC E. coli [8]: 13 µg/mL (≈ 4.57 µM)
6 | chitosan-graft-poly(lysine-ran-phenylalanine) [CS-g-K8F8] | >2500 | >2500 | >2500 | 2500 | 160 | HC50 (the concentration which is 50% hemolytic) (human red blood cells [9]): 12500 µg/mL; MIC against the bacterial pathogens [10]: ≥ 2500 µg/mL
7 | chitosan-graft-polylysine [CS-g-K16] | 20 | 20 | 10 | 10 | 5 | HC50 compared with other state-of-the-art antimicrobial polymers (human red blood cells [9]): 3 to 5 orders of magnitude; hemolytic percentage (human red blood cells [9]): below 50%; MICs for all pathogens tested [1]: 5 to 20 µg/mL; MICs against Gram-negative and Gram-positive bacteria and fungi ([1]; range over all pathogens): 5-20 μml^−1; membrane potential sensitive dye DiSC3(5) leakage (E. coli membrane): immediate fluorescence increase; bacterial viability by LIVE/DEAD stain (SYTO 9 / propidium iodide) (E. coli): renders E. coli cell membrane permeable to propidium iodide; morphology of microbial cells (FESEM) [11]: exhibit obvious morphological changes; bacterial growth and SMCs growth in co-culture [12]: inhibits the bacterial growth but permits SMCs growth; also recorded: bacteria were inhibited and SMCs grew well
8 | chitosan-graft-polylysine [CS-g-K1] | 80 | 40 | 80 | 160 | 40 | 
9 | chitosan-graft-poly(lysine-ran-phenylalanine) [CS-g-K12.5F12.5] | 1250 | 310 | 630 | 1250 | 80 | HC50 (the concentration which is 50% hemolytic) (human red blood cells [9]): 7500 µg/mL; increase of MICs compared with P(K12.5F12.5) (#5B) ([10]; for the three bacteria): more than 5 times; MIC against the bacterial pathogens [10]: ≥ 630 µg/mL
10 | chitosan-graft-polylysine [CS-g-K3] | 20 | 20 | 20 | 40 | 10 | 

From patent US20140228279A1, “CATIONIC PEPTIDOPOLYSACCHARIDES WITH EXCELLENT BROAD- SPECTRUM ANTIMICROBIAL ACTIVITIES AND HIGH SELECTIVITY” (priority 2011, published 2014)
